Structures can show the parent of a compound that is named as a salt. Where two headings read alike, the source gives them in different places.
Tested on: genetisch hypertonen Ratten
Test: Antihypertensive effect (systolic blood pressure, tail cuff) in spontaneously hypertensive rats after oral dosing
Type: in vivo, Ratte
Settings: Rattus norvegicus; for change in vivo at 25 µmol/kg: 25 µmol/kg p.o. once daily on four consecutive days; for change in vivo at 5 µmol/kg: 5 µmol/kg p.o. once daily on four consecutive days; for change in vivo at 10 µmol/kg: 10 µmol/kg p.o. once daily on four consecutive days
Text: Die antihypertensive Wirksamkeit der erfindungsgemäßen Verbindungen kann am Modell der spontan hypertonen Ratte nachgewiesen werden.
Zur Bestimmung der antihypertensiven Wirkung werden die unten aufgeführten Verbindungen in den angegebenen Dosen an vier aufeinander folgenden Tagen an je 6 männlichen Ratten (Stamm SHR/N/Ibm/Bm, 250-350 g) mit genetisch bedingtem Hochdruck (systolischer Blutdruck > 180 mmHg) täglich einmal mittels Schlundsonde verabfolgt. Die Messung des Blutdrucks erfolgt jeweils 6 und gegebenenfalls 2 oder 24 Studnen nach Substanzgabe.
Die Blutdruckmessung wird in einer Wärmekammer bei 36°C vorgenommen, um eine bessere Durchblutung der Schwanzarterie zu erreichen. Hierzu werden die Tiere in perforierte Lochblechkäfige verbracht und 20 - 40 Min. nach Beginn der Aufwärmung gemessen. Zur Messung des systolischen arteriellen Drucks wird eine ringförmige Manschette mit aufblasbarer Gummimembran zur Unterbindung der Durchblutung und ein ringförmiger Piezokristallaufnehmer zur Erfassung der Pulswellen auf den Schwanz aufgeschoben. Nach erfolgter Unterbindung des Blutstroms in der Schwanzarterie wird der Manschettendruck kontinuierlich reduziert. Die Wiederkehr der Pulswellen bei Druckablassen wird automatisch als systolischer Blutdruck erkannt und ausgedruckt (Bühler, R. er al." Microprocessor-based automation of blood pressure measurement in the conscious rat. Proceedings of the 4th international symposium on rats with spontaneous hypertension and related studies, Rascher, R. et al. (Eds.), Schattauer Verlag, Stuttgart, New York, 1982, S. 410-413). Pulssignale und Druckverlauf werden zur Auswertung graphisch aufgezeichnet.
Zur Gewöhnung an den Meßvorgang werden die Tiere vor Substanzprüfung 14 Tage trainiert. In der zweiten Trainingswoche werden Blutdruck-Vorwerte erhoben. Tiergruppen, die Substanz erhalten, werden gegen eine Kontrollgruppe geprüft.
In der anschließenden Tabelle werden die untersuchten Verbindungen durch laufende Nummern gekennzeichnet, die mit den jewiligen Beispielnummern übereinstimmen.
Tabelle I gibt für die Vertreter der erfindungsgemäßen Verbindungen die prozentuale Senkung des Blutdrucks (BP) nach oraler Verabreichung bei der Ratte wieder.

[1] = 2h after dosing, mean of days 1+4, male SHR/N/Ibm/Bm rats, N=6, read-out: BP (% Änderung vs. Kontrolle), Mittelwert für Meßzeitpunkte: Stunden nach Gabe (Tage) 2h (1.+4.Tag)
[2] = 6h after dosing, mean of days 1-4, male SHR/N/Ibm/Bm rats, N=6, read-out: BP (% Änderung vs. Kontrolle), Mittelwert für Meßzeitpunkte: Stunden nach Gabe (Tage) 6h (1.-4.Tag)
[3] = 24h after dosing, mean of days 1+3, male SHR/N/Ibm/Bm rats, N=6, read-out: BP (% Änderung vs. Kontrolle), Mittelwert für Meßzeitpunkte: Stunden nach Gabe (Tage) 24h (1.+3.Tag)

SMILES | change in vivo at 25 µmol/kg [1] [%] | change in vivo at 25 µmol/kg [2] [%] | change in vivo at 25 µmol/kg [3] [%] | change in vivo at 10 µmol/kg [1] [%] | change in vivo at 10 µmol/kg [2] [%] | change in vivo at 10 µmol/kg [3] [%] | also measured
CC1=C(C(=O)OCCCN2CCC(c3ccccc3)CC2)C(c2cccc([N+](=O)[O-])c2)C(C(=O)O[C@@H]2C[C@H](C)CC[C@H]2C(C)C)=C(C)N1 (single isomer, unassigned) [Beispiel 2b, 1,4-Dihydro-2,6-dimethyl-4-(3-nitrophenyl)-pyridin-3,5-dicarbonsäure-3-(-)-menthyl-5-[3-(4-phenylpiperidyl-1)-propyl]-ester-hydrochlorid] | -36 | -33 | -16 |  |  |  | 
COc1ccccc1N1CCN(CCCOC(=O)C2=C(C)NC(C)=C(C(=O)O[C@@H]3C[C@H](C)CC[C@H]3C(C)C)C2c2cccc([N+](=O)[O-])c2)CC1 (single isomer, unassigned) [Beispiel 3b, 1,4-Dihydro-2,6-dimethyl-4-(3-nitrophenyl)-pyridin-3,5-dicarbonsäure-3-(-)-menthyl-5-{3-[4-(2-methoxyphenyl)-1-piperazinyl]-propyl}-ester-fumarat] | -23 | -36 | -17 |  |  |  | 
CC1=C(C(=O)OCCN2CCN(c3ccccc3)CC2)C(c2cccc([N+](=O)[O-])c2)C(C(=O)O[C@@H]2C[C@H](C)CC[C@H]2C(C)C)=C(C)N1 (single isomer, unassigned) [Beispiel 4b, 1,4-Dihydro-2,6-dimethyl-4-(3-nitrophenyl)-pyridin-3,5-dicarbonsäure-3-(-)-menthyl-5-[2-(4-phenyl-1-piperazinyl)-ethyl]ester-fumarat] |  |  |  |  |  |  | change in vivo at 5 µmol/kg [1]: -18%; change in vivo at 5 µmol/kg [2]: -16%; change in vivo at 5 µmol/kg [3]: 4%
CC1=C(C(=O)OCCN2CCN(c3ccccn3)CC2)C(c2cccc([N+](=O)[O-])c2)C(C(=O)O[C@@H]2C[C@H](C)CC[C@H]2C(C)C)=C(C)N1 (single isomer, unassigned) [Beispiel 5b, 1,4-Dihydro-2,6-dimethyl-4-(3-nitropheny)-pyridin-3,5-dicarbonsäure-3-(-)-menthyl-5-{2-[4-(2-pyridyl)-1-piperazinyl]-ethyl}-ester-fumarat] |  |  |  | -20 | -12 | -10 | 
CC1=C(C(=O)OCCCN(C)Cc2ccccc2)C(c2cccc([N+](=O)[O-])c2)C(C(=O)O[C@@H]2C[C@H](C)CC[C@H]2C(C)C)=C(C)N1 (single isomer, unassigned) [Beispiel 6] | -27 | -33 | -10 |  |  |  | 
CC1=C(C(=O)OCCCN2CCC(C(=O)c3ccc(F)cc3)CC2)C(c2cccc([N+](=O)[O-])c2)C(C(=O)O[C@@H]2C[C@H](C)CC[C@H]2C(C)C)=C(C)N1 (single isomer, unassigned) [Beispiel 7, 1,4-Dihydro-2,6-dimethyl-4-(3-nitrophenyl)-pyridin-3,5-dicarbonsäure-3-(-)-menthyl-5-{3-[4-(4-fluorbenzoyl)-piperidyl-1]-propyl}-ester-hydrochlorid] |  |  |  | -12 | -11 | 5 | 
COc1ccccc1N1CCN(CCOC(=O)C2=C(C)NC(C)=C(C(=O)O[C@@H]3C[C@H](C)CC[C@H]3C(C)C)C2c2cccc([N+](=O)[O-])c2)CC1 (single isomer, unassigned) [Beispiel 9, 1,4-Dihydro-2,6-dimethyl-4-(3-nitrophenyl)-pyridin-3,5-dicarbonsäure-3-(-)-menthyl-5-{2-[4-(2-methoxyphenyl)1-piperazinyl]-ethyl}-ester] |  |  |  | -22 | -32 | -4 | 
CC1=C(C(=O)OCCCN2CCN(c3ccccc3)CC2)C(c2cccc([N+](=O)[O-])c2)C(C(=O)O[C@@H]2C[C@H](C)CC[C@H]2C(C)C)=C(C)N1 (single isomer, unassigned) [Beispiel 10, 1,4-Dihydro-2,6-dimethyl-4-(3-nitrophenyl)-pyridin-3,5-dicarbonsäure-3-(-)-menthyl-5-[3-(4-phenyl-1-piperazinyl)-propyl]-ester-fumarat] | -34 | -34 | -6 |  |  |  | 
CCOc1ccccc1N1CCN(CCCOC(=O)C2=C(C)NC(C)=C(C(=O)O[C@@H]3C[C@H](C)CC[C@H]3C(C)C)C2c2cccc([N+](=O)[O-])c2)CC1 (single isomer, unassigned) [Beispiel 11, 1,4-Dihydro-2,6-dimethyl-4-(3-nitrophenyl)-pyridin-3,5-dicarbonsäure-3-(-)-menthyl-5-{3-[4-(2-ethoxyphenyl)-1-piperazinyl]-propyl}ester-fumarat] |  |  |  | -21 | -26 | -10 | 
CC1=C(C(=O)OCCCN2CCN(c3ccccn3)CC2)C(c2cccc([N+](=O)[O-])c2)C(C(=O)O[C@@H]2C[C@H](C)CC[C@H]2C(C)C)=C(C)N1 (single isomer, unassigned) [Beispiel 12, 1,4-Dihydro-2,6-dimethyl-4-(3-nitrophenyl)-pyridin-3,5-dicarbonsäure-3-(-)-menthyl-5-{3-[4-(2-pyridyl)-1-piperazinyl]-propyl}-ester-fumarat] |  |  |  | -17 | -20 | -1 | 
CC1=C(C(=O)OCCCN2CCN(C(c3ccccc3)c3ccccc3)CC2)C(c2cccc([N+](=O)[O-])c2)C(C(=O)O[C@@H]2C[C@H](C)CC[C@H]2C(C)C)=C(C)N1 (single isomer, unassigned) [Beispiel 13, 1,4-Dihydro-2.6-dimethyl-4-(3-nitrophenyl)-pyridin-3,5-dicarbonsäure-3-(-)-menthyl-5-[3-(4-benzhydryl-1-piperazinyl)-propyl]-ester-semifumarat] | -30 | -40 | -35 |  |  |  | 
CC1=C(C(=O)OCCCN2CCN(c3cccc(C(F)(F)F)c3)CC2)C(c2cccc([N+](=O)[O-])c2)C(C(=O)O[C@@H]2C[C@H](C)CC[C@H]2C(C)C)=C(C)N1 (single isomer, unassigned) [Beispiel 14, 1,4-Dihydro-2,6-dimethyl-4-(3-nitrophenyl)-pyridin-3,5-dicarbonsäure-3-(-)-menthyl-5-{3-[4-(3-trifluormethylphenyl}-1-piperazinyl]-propyl}-ester-fumarat] | -42 | -43 | -21 |  |  |  | 
COc1cccc(N2CCN(CCCOC(=O)C3=C(C)NC(C)=C(C(=O)O[C@@H]4C[C@H](C)CC[C@H]4C(C)C)C3c3cccc([N+](=O)[O-])c3)CC2)c1 (single isomer, unassigned) [Beispiel 15, 1,4-Dihydro-2,6-dimethyl-4-(3-nitrophenyl)-pyridin-3,5-dicarbonsäure-3-(-)-menthyl-5-{3-[4-(3-methoxyphenyl)-1-piperazinyl]-propyl}-ester-fumarat] |  |  |  | -14 | -7 | -4 | 
